Assay results from EP1161524B1, “CELLS COEXPRESSING AN AMYLOID PRECURSOR PROTEIN AND AN $g(a)-SECRETASE AND THEIR USES IN TEST METHODS AND DIAGNOSTICS” (Fahrenholz, Falk, priority 1999, dated 2000).

Key:
gereinigtes ADAM 10 = target: T1, gereinigtes ADAM 10 (Bos taurus, UniProt Q10741); experiment: Inhibition of the proteolytic cleavage of Aβ(11-28) by purified ADAM 10 (metalloproteinase inhibitors); format: biochemical, Rind (Bos taurus); conditions: inhibitor concentration 1 mM
T1 construct: daß die proteolytisch aktivierte Form der Disintegrin-Metalloprotease ADAM 10 im wesentlichen in der Plasmamembranen lokalisiert ist; from tissue; host or cells: bovine kidney plasma membranes
T1 sequence (Q10741 214-748): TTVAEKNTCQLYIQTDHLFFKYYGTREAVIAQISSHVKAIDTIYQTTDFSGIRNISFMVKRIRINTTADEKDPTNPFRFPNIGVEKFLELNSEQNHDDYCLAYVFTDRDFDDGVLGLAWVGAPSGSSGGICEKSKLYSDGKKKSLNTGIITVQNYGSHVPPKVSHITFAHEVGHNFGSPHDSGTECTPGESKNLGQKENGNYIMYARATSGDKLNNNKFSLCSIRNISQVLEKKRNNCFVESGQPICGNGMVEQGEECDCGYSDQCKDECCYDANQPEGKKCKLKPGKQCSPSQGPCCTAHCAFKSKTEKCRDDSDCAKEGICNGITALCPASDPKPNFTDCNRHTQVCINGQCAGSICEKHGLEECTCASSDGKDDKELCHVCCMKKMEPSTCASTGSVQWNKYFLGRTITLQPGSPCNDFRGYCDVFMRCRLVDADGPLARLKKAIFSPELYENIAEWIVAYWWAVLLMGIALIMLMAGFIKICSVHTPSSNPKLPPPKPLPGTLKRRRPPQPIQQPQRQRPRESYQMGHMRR
Description: Peptide einer Endkonzentration von 0,3 mM wurden mit 2 µg gereinigten Enzym in 50 µl 50 mM EPPS pH 8,3, 250 mM NaCl bei 37°C 30 Minuten oder 6 Stunden inkubiert. Die Reaktionen wurden mit 2 µl TFA gestoppt. Meßproben wurden mit Hilfe von HPLC auf einer Vydac (The Separation Group, Hesperia, Calif. USA) RP 18 Säule (5 µm, 250 x 4,6 mm) analysiert. Die Peptide wurden mit einem Puffersystem von 0,1 % TFA in Wasser (Puffer A) und 0,1 % TFA, 9,9 % Wasser, 90 % Acetonitril (Puffer B) aufgetrennt, wobei der folgende Gradient angelegt wurde: 0 % B, 5 Min.; 0 bis 70 % B innerhalb 45 Min. Das Molekulargewicht der Proteolyseprodukte wurde mit ESI-Massenspektrometrie bestimmt. Für die Berechnung der prozentualen Spaltung wurde die Peakfläche, die ein Peptid ergab, das ohne Enzym inkubiert und ansonsten identisch behandelt wurde, als Referenz für 100 % herangezogen.
Einige Metalloproteinase-Inhibitoren wurden auf ihre Fähigkeit, die proteolytische Spaltung von Aβ(11-28) durch gereinigtes ADAM 10 zu inhibieren, getestet.

HEK-Zellen = experiment: Immunoblot analysis of APPsα secretion into the medium (antibody 6E10), untransfected HEK cells; format: cell-based; conditions: Homo sapiens, HEK293, 1 µm PMA, 4 h, Fig. 5 lanes 1 and 2, read-out: Erhöhung der APPsα-Freisetzung
Source text: (§1) Fig. 5 zeigt die Sekretion von APPsα von HEK- und HEK-ADAM-10-Zellen. • (A) Die Zellen wurden in Gegenwart der bezeichneten Verbindung inkubiert. Nach 4 Stunden wurde das Medium gesammelt, die Proteine präzipitiert und einer Immunoblotanalyse mit dem monoklonalen Antikörper 6E10, gefolgt von einem sekundären [^35S]-markierten Anti-Maus-IgG-Antikörper, unterzogen. • (B) Quantitative Analyse des sekretierten APPsα. Die APPsα entsprechenden radioaktiven Banden wurden mit Hilfe eines Bio-Imaging Analyzer BAS-1800 quantifiziert. Die Meßwerte wurden wie in dem Beispiel beschrieben, auf verschiedene Proteinmengen normiert. […]
(§2) 8.10^5 HEK und HEK-ADAM10-Zellen (HEK-Zellen, die ADAM 10 stabil exprimieren, Verfahren wie oben) wurden auf 5 cm Zellkulturschalen, die mit Poly-L-Lysin behandelt worden waren, ausgesät und fast bis zu Konfluenz hochgezogen. […] Die radioaktiven Banden, die APPsα entsprachen, wurden mit Hilfe des Bio-Imaging-Analysers-BAS-1800 (Fuji) quantifiziert. […]
(§3) Die α-Sekretaseaktivität in HEK-ADAM 10 Zellen wurde mit der Aktivität, die in untransfizierten HEK-Zellen gefunden wurde, verglichen. […] Immunoblotexperimente und Immunopräzipitation nach metabolischer [^35S]-Markierung wurden durchgeführt, um die α-Sekretaseaktivität zu quantifizieren (Fig. 5 und Fig. 6). […]

HEK-ADAM 10-Zellen = experiment: Immunoblot analysis of APPsα secretion into the medium (antibody 6E10), HEK cells stably expressing ADAM 10; format: cell-based; conditions: Homo sapiens, HEK293; HEK-ADAM 10 cells, 1 µm PMA, 4 h, Fig. 5 lanes 4 and 5; read-out: Vergrößerung der α-Sekretaseaktivität (APPsα-Freisetzung)
Source text: as §1, §2, §3

With c1cnc2c(c1)ccc1cccnc12 [1,10-Phenanthrolin] as the compound, how does the “Inhibierung der proteolytischen Spaltung von Aβ(11-28) durch gereinigtes ADAM 10” value (gereinigtes ADAM 10) read?
Its value is “inhibierte”.

Which “Inhibierung der proteolytischen Spaltung von Aβ(11-28) durch gereinigtes ADAM 10” value (gereinigtes ADAM 10) does the source give for OC(CS)C(O)CS (stereo not shown) [DTT] here?
Its value is “vollständig inhibiert”.

What does the source list for CCCCCCCCCCCCCC(=O)O[C@@H]1[C@@H](C)[C@@]2(O)[C@@H](C=C(CO)C[C@]3(O)C(=O)C(C)=C[C@@H]23)[C@@H]2C(C)(C)[C@]12OC(C)=O [PMA, Phorbol-12-myristat-13-acetat]?
fold induction at 1 µM (HEK-Zellen): ~6; fold induction at 1 µM (HEK-ADAM 10-Zellen): 2.5
